In ChEMBL document CHEMBL3991601, “The target landscape of clinical kinase drugs” (Science, 2017):
Activity calls are given as the source filed them. Rule as the data show it, for most assays here: actives have a measured Kd and inactives only a lower limit.

How the values were obtained:
[1] = target: T1, Dual specificity mitogen-activated protein kinase kinase 5 (Homo sapiens, UniProt Q13163)
T1 sequence (Q13163 whole entry): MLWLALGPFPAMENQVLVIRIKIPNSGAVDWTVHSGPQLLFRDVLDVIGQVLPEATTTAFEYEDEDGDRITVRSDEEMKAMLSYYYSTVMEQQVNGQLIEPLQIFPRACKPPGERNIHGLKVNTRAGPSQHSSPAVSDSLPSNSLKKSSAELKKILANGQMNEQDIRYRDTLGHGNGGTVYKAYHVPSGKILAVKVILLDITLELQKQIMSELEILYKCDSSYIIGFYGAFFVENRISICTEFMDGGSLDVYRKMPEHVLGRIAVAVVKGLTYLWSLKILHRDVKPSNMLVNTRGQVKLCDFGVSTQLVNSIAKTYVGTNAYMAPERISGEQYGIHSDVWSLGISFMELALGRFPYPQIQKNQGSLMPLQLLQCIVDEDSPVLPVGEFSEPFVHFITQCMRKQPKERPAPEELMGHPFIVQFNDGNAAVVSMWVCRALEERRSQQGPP

[2] = target: T2, Mitogen-activated protein kinase kinase kinase 3 (Homo sapiens, UniProt Q99759)
T2 sequence (Q99759 whole entry): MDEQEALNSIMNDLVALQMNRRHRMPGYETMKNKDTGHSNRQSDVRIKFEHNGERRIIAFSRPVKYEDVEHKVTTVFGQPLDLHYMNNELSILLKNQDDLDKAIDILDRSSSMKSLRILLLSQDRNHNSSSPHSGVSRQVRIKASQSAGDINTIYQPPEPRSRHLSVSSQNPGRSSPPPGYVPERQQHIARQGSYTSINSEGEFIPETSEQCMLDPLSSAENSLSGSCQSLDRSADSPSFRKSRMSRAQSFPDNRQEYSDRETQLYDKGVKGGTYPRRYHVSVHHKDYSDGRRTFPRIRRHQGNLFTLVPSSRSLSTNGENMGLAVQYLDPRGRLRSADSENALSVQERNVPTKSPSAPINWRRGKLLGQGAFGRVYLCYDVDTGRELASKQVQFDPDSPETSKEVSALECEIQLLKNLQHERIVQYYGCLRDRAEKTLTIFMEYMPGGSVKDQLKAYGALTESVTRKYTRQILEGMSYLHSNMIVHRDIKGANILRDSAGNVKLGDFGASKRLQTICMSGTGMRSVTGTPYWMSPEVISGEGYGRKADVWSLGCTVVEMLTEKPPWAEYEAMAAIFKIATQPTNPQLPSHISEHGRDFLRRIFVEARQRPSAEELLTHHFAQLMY

[3] = target: Ras-related protein Rab-6A (Homo sapiens, UniProt P20340)
[4] = target: Ribosomal protein S6 kinase alpha-6 (Homo sapiens, UniProt Q9UK32)
[5] = target: T3, Serine/threonine-protein kinase ULK3 (Homo sapiens, UniProt Q6PHR2)
T3 sequence (Q6PHR2 whole entry): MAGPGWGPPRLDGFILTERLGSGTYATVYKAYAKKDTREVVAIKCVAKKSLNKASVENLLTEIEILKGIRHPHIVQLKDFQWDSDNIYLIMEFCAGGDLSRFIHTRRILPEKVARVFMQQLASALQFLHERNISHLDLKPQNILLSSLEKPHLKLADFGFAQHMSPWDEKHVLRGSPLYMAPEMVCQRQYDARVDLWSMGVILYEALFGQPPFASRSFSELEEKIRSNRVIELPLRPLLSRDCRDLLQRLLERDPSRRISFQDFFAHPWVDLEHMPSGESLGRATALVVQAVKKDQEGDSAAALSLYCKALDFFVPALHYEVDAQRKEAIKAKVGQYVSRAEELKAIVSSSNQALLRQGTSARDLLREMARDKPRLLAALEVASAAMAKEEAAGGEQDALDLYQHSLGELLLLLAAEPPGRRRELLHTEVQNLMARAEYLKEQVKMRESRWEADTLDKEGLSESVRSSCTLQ

Wee1-like protein kinase = Wee1-like protein kinase (Homo sapiens, UniProt P30291)
Also: in the data inactive means no Kd found up to 30 µM.

Ribosomal protein S6 kinase alpha-6, sequence (Q9UK32 whole entry): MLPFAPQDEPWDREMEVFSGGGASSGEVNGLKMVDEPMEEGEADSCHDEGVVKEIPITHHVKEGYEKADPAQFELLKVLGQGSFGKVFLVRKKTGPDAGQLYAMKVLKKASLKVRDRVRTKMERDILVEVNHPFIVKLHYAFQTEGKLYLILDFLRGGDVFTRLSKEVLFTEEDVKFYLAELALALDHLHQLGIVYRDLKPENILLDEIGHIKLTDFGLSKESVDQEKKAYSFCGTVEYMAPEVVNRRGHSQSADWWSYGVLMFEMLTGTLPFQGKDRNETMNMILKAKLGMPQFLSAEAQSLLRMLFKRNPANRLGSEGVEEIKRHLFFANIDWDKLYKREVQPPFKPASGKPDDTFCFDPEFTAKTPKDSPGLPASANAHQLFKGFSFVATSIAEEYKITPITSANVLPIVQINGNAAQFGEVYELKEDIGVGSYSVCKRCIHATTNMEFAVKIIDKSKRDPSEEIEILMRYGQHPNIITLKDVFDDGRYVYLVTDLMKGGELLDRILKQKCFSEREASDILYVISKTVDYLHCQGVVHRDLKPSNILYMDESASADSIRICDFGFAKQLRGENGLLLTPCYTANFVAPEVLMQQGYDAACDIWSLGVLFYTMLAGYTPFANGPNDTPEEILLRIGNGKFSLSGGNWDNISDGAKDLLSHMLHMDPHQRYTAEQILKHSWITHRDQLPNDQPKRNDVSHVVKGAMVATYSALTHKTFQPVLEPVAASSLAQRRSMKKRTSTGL
Wee1-like protein kinase, sequence (P30291 whole entry): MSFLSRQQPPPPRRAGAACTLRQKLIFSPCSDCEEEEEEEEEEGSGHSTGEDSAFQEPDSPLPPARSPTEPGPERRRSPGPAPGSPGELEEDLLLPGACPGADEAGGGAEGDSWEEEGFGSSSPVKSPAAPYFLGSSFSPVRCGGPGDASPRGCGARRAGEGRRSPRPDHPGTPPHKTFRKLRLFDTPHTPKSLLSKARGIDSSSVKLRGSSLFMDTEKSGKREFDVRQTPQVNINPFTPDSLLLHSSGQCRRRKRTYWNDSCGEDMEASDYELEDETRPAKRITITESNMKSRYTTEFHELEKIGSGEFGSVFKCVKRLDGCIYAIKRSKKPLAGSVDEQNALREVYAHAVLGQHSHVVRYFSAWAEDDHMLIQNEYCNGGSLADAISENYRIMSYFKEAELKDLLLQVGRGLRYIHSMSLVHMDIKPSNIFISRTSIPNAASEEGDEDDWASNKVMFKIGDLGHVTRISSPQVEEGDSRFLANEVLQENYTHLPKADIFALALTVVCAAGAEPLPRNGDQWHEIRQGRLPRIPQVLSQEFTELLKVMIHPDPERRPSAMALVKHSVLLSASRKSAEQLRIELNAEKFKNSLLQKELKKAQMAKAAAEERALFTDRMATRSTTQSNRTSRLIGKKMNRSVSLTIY
Ras-related protein Rab-6A, sequence (P20340 whole entry): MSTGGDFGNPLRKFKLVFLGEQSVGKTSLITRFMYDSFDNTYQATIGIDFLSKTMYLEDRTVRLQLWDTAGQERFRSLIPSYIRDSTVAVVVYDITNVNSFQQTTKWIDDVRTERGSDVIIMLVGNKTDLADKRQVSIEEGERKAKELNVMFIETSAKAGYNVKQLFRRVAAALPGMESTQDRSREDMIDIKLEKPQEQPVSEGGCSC

Structure (SMILES)	Kd [1]	Kd [2]	Kd [3]	Kd [4]	Kd [5]	Kd (Wee1-like protein kinase)
C[C@@H](Oc1cc(C(=O)Nc2ccc(C(=O)N3CCN(C)CC3)cc2)nnc1N)c1c(Cl)ccc(F)c1Cl	> 30 µM (inactive)	> 30 µM (inactive)	> 30 µM (inactive)	> 30 µM (inactive)	> 30 µM (inactive)	> 30 µM (inactive)
CCNC(=O)C#Cc1ccc2c(c1)NC(=O)/C2=C(\Nc1ccc(CN(C)C)cc1)c1ccccc1	0.177 µM (active)	> 30 µM (inactive)	> 30 µM (inactive)	> 30 µM (inactive)	0.612 µM (active)	> 30 µM (inactive)
COCc1c(-c2ccc(NC(=O)Nc3cc(C(F)(F)F)ccc3F)c(F)c2)c2c(N)ncnn2c1CN1CCOCC1	> 30 µM (inactive)	> 30 µM (inactive)	> 30 µM (inactive)	2.69 µM (active)	> 30 µM (inactive)	> 30 µM (inactive)
Nc1ncnc2c1c(-c1cccc(OCc3ccccc3)c1)cn2[C@H]1C[C@@H](CN2CCC2)C1 [AEW-541]	0.146 µM (active)	> 30 µM (inactive)	> 30 µM (inactive)	> 30 µM (inactive)	> 30 µM (inactive)	> 30 µM (inactive)
COc1cc([C@@H]2c3cc4c(cc3[C@H](O)[C@H]3COC(=O)[C@@H]23)OCO4)cc(OC)c1OC [AXL-1717]	> 30 µM (inactive)	> 30 µM (inactive)	> 30 µM (inactive)	> 30 µM (inactive)	> 30 µM (inactive)	> 30 µM (inactive)
NC(=O)Nc1cc(-c2cccc(F)c2)sc1C(=O)N[C@H]1CCCNC1 [AZD-7762]	0.147 µM (active)	> 30 µM (inactive)	> 30 µM (inactive)	1.51 µM (active)	1.79 µM (active)	> 30 µM (inactive)
Cc1cc(Nc2ncc(Cl)c(Nc3ccccc3S(=O)(=O)C(C)C)n2)c(OC(C)C)cc1C1CCNCC1 [CERITINIB]	> 30 µM (inactive)	> 30 µM (inactive)	> 30 µM (inactive)	> 30 µM (inactive)	> 30 µM (inactive)	> 30 µM (inactive)
C#Cc1cccc(Nc2ncnc3cc(OC)c(OCCCCCCC(=O)NO)cc23)c1 [CUDC-101]	> 30 µM (inactive)	> 30 µM (inactive)	> 30 µM (inactive)	> 30 µM (inactive)	> 30 µM (inactive)	> 30 µM (inactive)
Cn1cc(C2=C(c3cn(C4CCN(Cc5ccccn5)CC4)c4ccccc34)C(=O)NC2=O)c2ccccc21 [ENZASTAURIN]			> 30 µM (inactive)			
Cc1cccc(-c2nn3c(c2-c2ccnc4ccc(C(N)=O)cc24)CCC3)n1 [GALUNISERTIB]	> 30 µM (inactive)	> 30 µM (inactive)	> 30 µM (inactive)	> 30 µM (inactive)	> 30 µM (inactive)	> 30 µM (inactive)
CCn1cc(-c2ccnc3[nH]c(-c4cccc(CN(C)C)c4)cc23)c(-c2ccc(NC(=O)N(C)C)cc2)n1 [GSK-1070916]	1.93 µM (active)	> 30 µM (inactive)	> 30 µM (inactive)	> 30 µM (inactive)	> 30 µM (inactive)	> 30 µM (inactive)
CNC(=O)c1nn(C)c2c1C(C)(C)Cc1cnc(Nc3ccc(N4CCN(C)CC4)cc3)nc1-2 [MILCICLIB]	> 30 µM (inactive)	> 30 µM (inactive)	> 30 µM (inactive)	> 30 µM (inactive)	> 30 µM (inactive)	0.013 µM (active)
NC1(c2ccc(-c3nc4ccn5c(=O)[nH]nc5c4cc3-c3ccccc3)cc2)CCC1 [MK-2206]	> 30 µM (inactive)	> 30 µM (inactive)		> 30 µM (inactive)	> 30 µM (inactive)	> 30 µM (inactive)
CN(C[C@@H]1COCCO1)S(=O)(=O)Nc1ccc2ccc3ncc(-c4cnn(C)c4)cc3c(=O)c2c1 [MK-2461]	> 30 µM (inactive)	> 30 µM (inactive)	> 30 µM (inactive)	> 30 µM (inactive)	> 30 µM (inactive)	> 30 µM (inactive)
FC(F)(F)c1ccc(/C=C/c2nc(COc3ccc(CCCCn4ccnn4)cc3)co2)cc1 [MUBRITINIB]	> 30 µM (inactive)	> 30 µM (inactive)	> 30 µM (inactive)	> 30 µM (inactive)	> 30 µM (inactive)	> 30 µM (inactive)
CCOc1cc2ncc(C#N)c(Nc3ccc(F)c(Cl)c3)c2cc1NC(=O)/C=C/CN(C)C [PELITINIB]	> 30 µM (inactive)	2.09 µM (active)	> 30 µM (inactive)	> 30 µM (inactive)	> 30 µM (inactive)	
CC(=O)NCC(=O)N1[C@@H]2CC[C@H]1c1ccc(Nc3ncc(C(F)(F)F)c(NC4CCC4)n3)cc12 [PF-03814735]		0.246 µM (active)	> 30 µM (inactive)		0.019 µM (active)	1.59 µM (active)
CO[C@H]1C[C@@H]2CC[C@@H](C)[C@@](O)(O2)C(=O)C(=O)N2CCCC[C@H]2C(=O)O[C@H]([C@H](C)C[C@@H]2CC[C@@H](OP(C)(C)=O)[C@H](OC)C2)CC(=O)[C@H](C)/C=C(\C)[C@@H](O)[C@@H](OC)C(=O)[C@H](C)C[C@H](C)/C=C/C=C/C=C/1C [RIDAFOROLIMUS]	> 30 µM (inactive)	> 30 µM (inactive)	> 30 µM (inactive)	> 30 µM (inactive)	> 30 µM (inactive)	> 30 µM (inactive)
CN1CCN(CCOc2cc(OC3CCOCC3)c3c(Nc4c(Cl)ccc5c4OCO5)ncnc3c2)CC1 [SARACATINIB]		> 30 µM (inactive)	> 30 µM (inactive)	> 30 µM (inactive)	> 30 µM (inactive)	> 30 µM (inactive)
COc1cc2c(Nc3ccc(Cl)c(Cl)c3F)ncnc2cc1OC[C@@H]1C[C@@H]2CN(C)C[C@@H]2C1 [TESEVATINIB]	65.7 µM (active)	> 30 µM (inactive)	> 30 µM (inactive)	> 30 µM (inactive)	> 30 µM (inactive)	> 30 µM (inactive)
C[C@@H](NC(=O)c1ncnc(N)c1Cl)c1ncc(C(=O)Nc2cc(C(F)(F)F)c(Cl)cn2)s1 [TOVORAFENIB]	> 30 µM (inactive)	> 30 µM (inactive)	> 30 µM (inactive)	> 30 µM (inactive)	> 30 µM (inactive)	0.252 µM (active)
Cn1ncc(Cl)c1-c1cc(C(=O)N[C@H](CN)Cc2ccc(F)c(F)c2)oc1Cl [UPROSERTIB]	> 30 µM (inactive)	> 30 µM (inactive)	> 30 µM (inactive)	> 30 µM (inactive)	> 30 µM (inactive)	> 30 µM (inactive)
